Legend:
[1] = system: normal NK cells expanded with K562-aAPC; assay: percent inhibition of viability; higher = more inhibition; settings: 72 h, IL-2 2.5 ng/mL
Description: (§1)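 Drug sensitivity and resistance testing on K562-aAPC-expanded normal NK cells: 5 concentrations (10-fold steps over a 10,000-fold range), 72 h at 37 °C, viability by CellTiter-Glo normalised to DMSO and benzethonium chloride controls; DSS from the fitted curve.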

DERL-7 (IL-2 2.5 ng/mL) [2] = assay: as above; settings: 72 h
IMC-1 (IL-2 20 ng/mL) [3] = assay: as above; settings: 72 h
KAI3 (IL-2 2.5 ng/mL) [4] = assay: as above; settings: 72 h
KHYG-1 (IL-2 2.5 ng/mL) [5] = assay: as above; settings: 72 h
NK-92 (IL-2 2.5 ng/mL) [6] = assay: as above; settings: 72 h
NK-YS (IL-2 2.5 ng/mL) [7] = assay: as above; settings: 72 h
NKL (IL-2 2.5 ng/mL) [8] = assay: as above; settings: 72 h
SNK-6 (IL-2 2.5 ng/mL) [9] = assay: as above; settings: 72 h
YT (IL-2 2.5 ng/mL) [10] = assay: as above; settings: 72 h
[11] = system: normal primary NK cells, pool 1 (3 donors) (IL-2 2.5 ng/mL); assay: as above; settings: 72 h
[12] = system: normal primary NK cells, pool 1 (3 donors), resting (IL-2 0 ng/mL); assay: as above; settings: 72 h
[13] = system: normal primary NK cells, pool 2 (3 donors) (IL-2 2.5 ng/mL); assay: as above; settings: 72 h
[14] = system: normal primary NK cells, pool 3 (3 donors) (IL-2 2.5 ng/mL); assay: as above; settings: 72 h
[15] = system: normal NK cells expanded with K562-aAPC; assay: drug sensitivity score (DSS) (DSS units); higher = more sensitive; extreme values may be limits of the assay; settings: 72 h; IL-2 2.5 ng/mL
Description: as §1

DERL-7 (IL-2 2.5 ng/mL) [16] = assay: as above; settings: 72 h
IMC-1 (IL-2 20 ng/mL) [17] = assay: as above; settings: 72 h
KAI3 (IL-2 2.5 ng/mL) [18] = assay: as above; settings: 72 h
KHYG-1 (IL-2 2.5 ng/mL) [19] = assay: as above; settings: 72 h
NK-92 (IL-2 2.5 ng/mL) [20] = assay: as above; settings: 72 h
NK-YS (IL-2 2.5 ng/mL) [21] = assay: as above; settings: 72 h
NKL (IL-2 2.5 ng/mL) [22] = assay: as above; settings: 72 h
SNK-6 (IL-2 2.5 ng/mL) [23] = assay: as above; settings: 72 h
YT (IL-2 2.5 ng/mL) [24] = assay: as above; settings: 72 h
[25] = system: normal primary NK cells, pool 1 (3 donors) (IL-2 2.5 ng/mL); assay: as above; settings: 72 h
[26] = system: normal primary NK cells, pool 1 (3 donors), resting (IL-2 0 ng/mL); assay: as above; settings: 72 h
[27] = system: normal primary NK cells, pool 2 (3 donors) (IL-2 2.5 ng/mL); assay: as above; settings: 72 h
[28] = system: normal primary NK cells, pool 3 (3 donors) (IL-2 2.5 ng/mL); assay: as above; settings: 72 h

CC(C)Oc1ccc(C(=O)N[C@H](CNC(=O)CN(C)C)Cc2ccc(-c3cn4cccc([C@H](C)O)c4n3)cc2)cc1Cl (max concentration tested 10000 nM)
percent inhibition of viability [%]
Settings | 1 nM | 10 nM | 100 nM | 1000 nM | 10000 nM
DERL-7 (IL-2 2.5 ng/mL) [2] | 3.17 | 0.65 | 70.1 | 99.2 | 98.2
IMC-1 (IL-2 20 ng/mL) [3] | -5.65 | 4.24 | 8.53 | 95.8 | 99.2
KAI3 (IL-2 2.5 ng/mL) [4] | -6.47 | -5.43 | 37.5 | 53.3 | 103
KHYG-1 (IL-2 2.5 ng/mL) [5] | -0.23 | 3.89 | 37.2 | 105 | 106
NK-92 (IL-2 2.5 ng/mL) [6] | 0.16 | 3.89 | 18.2 | 96.7 | 106
NK-YS (IL-2 2.5 ng/mL) [7] | -1.16 | 1.87 | 67.4 | 78.2 | 89.7
NKL (IL-2 2.5 ng/mL) [8] | 2.24 | 7.12 | 66.4 | 93.5 | 91.1
SNK-6 (IL-2 2.5 ng/mL) [9] | 1.52 | 24 | 74.4 | 84.6 | 89.7
YT (IL-2 2.5 ng/mL) [10] | 1.62 | 7.48 | 76.3 | 101 | 104
[1] | 5.14 | 3.61 | 10.7 | 62 | 88.4
[11] | -2.11 | -10.1 | 1.46 | -2.94 | 28.1
[12] | -16.4 | -27 | -21.3 | -33.1 | 54.9
[13] | -5.03 | 7.38 | 7.4 | 6.97 | 31
[14] | -8.24 | -2.71 | 16.4 | 4.47 | 33.7

Settings | drug sensitivity score
DERL-7 (IL-2 2.5 ng/mL) [16] | 25.9
IMC-1 (IL-2 20 ng/mL) [17] | 18.9
KAI3 (IL-2 2.5 ng/mL) [18] | 15.1
KHYG-1 (IL-2 2.5 ng/mL) [19] | 23.1
NK-92 (IL-2 2.5 ng/mL) [20] | 20.2
NK-YS (IL-2 2.5 ng/mL) [21] | 24.4
NKL (IL-2 2.5 ng/mL) [22] | 25.3
SNK-6 (IL-2 2.5 ng/mL) [23] | 27.8
YT (IL-2 2.5 ng/mL) [24] | 27.8
[15] | 13.2
[25] | 0.98
[26] | 1.92
[27] | 2.26
[28] | 2.31

CCn1c(-c2nonc2N)nc2c(C#CC(C)(C)O)ncc(OC[C@H]3CCCNC3)c21 (max concentration tested 10000 nM)
percent inhibition of viability [%]
Settings | 1 nM | 10 nM | 100 nM | 1000 nM | 10000 nM
DERL-7 (IL-2 2.5 ng/mL) [2] | -2.25 | 7.79 | 17.3 | 63.7 | 76.9
IMC-1 (IL-2 20 ng/mL) [3] | -5.57 | 1.4 | -4.57 | -6.32 | -11.7
KAI3 (IL-2 2.5 ng/mL) [4] | 0.15 | -2.81 | 1.43 | 5.52 | -1.32
KHYG-1 (IL-2 2.5 ng/mL) [5] | -3.45 | -0.24 | -0.07 | 6.49 | 7.82
NK-92 (IL-2 2.5 ng/mL) [6] | -4.48 | -3.46 | -8.79 | -1.49 | 26.3
NK-YS (IL-2 2.5 ng/mL) [7] | -2.15 | 0.74 | -0.26 | 2.64 | -8.44
NKL (IL-2 2.5 ng/mL) [8] | -5.47 | -17.8 | -8.99 | 0.96 | 9.13
SNK-6 (IL-2 2.5 ng/mL) [9] | 1.15 | 26.6 | -2.76 | -11.1 | -25.3
YT (IL-2 2.5 ng/mL) [10] | -1.14 | -1.15 | 0.26 | 5.9 | 9.45
[1] | -1.22 | -3.93 | -1.94 | 9.38 | 20.1
[11] | -8.01 | -9.66 | 4.32 | 9.43 | 76.3
[12] | -12.7 | -5.26 | 17.9 | 18.4 | 83.5
[13] | -2.46 | -9.24 | -1.71 | 8.35 | 69.8
[14] | -10.1 | -4.39 | -9.15 | 11.5 | 66.5

Settings | drug sensitivity score
DERL-7 (IL-2 2.5 ng/mL) [16] | 13.9
IMC-1 (IL-2 20 ng/mL) [17] | 0
KAI3 (IL-2 2.5 ng/mL) [18] | 0
KHYG-1 (IL-2 2.5 ng/mL) [19] | 0
NK-92 (IL-2 2.5 ng/mL) [20] | 0.93
NK-YS (IL-2 2.5 ng/mL) [21] | 0
NKL (IL-2 2.5 ng/mL) [22] | 0
SNK-6 (IL-2 2.5 ng/mL) [23] | 0
YT (IL-2 2.5 ng/mL) [24] | 0
[15] | 1.58
[25] | 5.8
[26] | 7.29
[27] | 5.23
[28] | 5.55
